# Assay: In vivo inhibition of ATX in rat assessed as reduction in plasma LPA levels at 5 mg/kg, po measured after 8 hrs by LC-MS analysis relative to control
# Format: functional
row,Compound,inhibition in vivo at 5 mg/kg [%]
1,CC(=O)N1CCN(c2ccc(CNc3ccc(OCc4cccc(C#N)c4)nn3)cc2)CC1,95.7
2,COc1ccc(COc2ccc(NCc3ccc(N4CCN(C(C)=O)CC4)cc3)nn2)cn1,98.3
